# Reference: patent US20120183493A1, “NOVEL POLYMERS” (PharmaPatents Global Ltd., priority 2009, published 2012)
# Like-named read-outs stand apart in the source and are kept apart here.
# Tests used:
# [1] = test system: guinea pig gingival fibroblast cells; conditions: cited from earlier work
# [2] = test system: fibroblasts from human hypertrophic scars; conditions: cited from earlier work; for proliferation of fibroblasts derived from hypertrophic scars: compound alone; for effect on AT II-stimulated increase in DNA synthesis: cultured fibroblasts, stimulation with AT II
# [3] = Solubility of the purified solid in organic solvents; format: physicochemical
# Description: 4 g of captopril in 15 ml of toluene with 0.5 g of Novozyme lipase B from Candida antartica was stirred in a 100 ml round bottom flask fitted with a drying tube (containing 3 Å molecular sieves and indicator silica gel) for 48 hours at 110° C. using a hotplate and magnetic stirrer. 50 ml of THF was then added and the enzyme was removed by filtration.
# 4 g of captopril lactone in 15 ml of toluene with 0.5 g of Novozyme lipase B from Candida antartica was stirred in a 100 ml round bottom flask fitted with a drying tube (containing 3 Å molecular sieves and indicator silica gel) for 48 hours at 110° C. using a hotplate and magnetic stirrer. 50 ml of THF was then added and the enzyme was removed by filtration.
# hypertrophied scars = conditions: topical application, animal model of pathologic scarring; cited from earlier work
# [4] = test system: experimental hepatic fibrosis; conditions: rats; cited from earlier work
# keloid scar = conditions: cited from earlier work
# dermal healing = conditions: by reducing fibrosis and improving collagen remodelling; cited from earlier work
# [5] = phenytoin- or nifedipine-induced gingival fibroblasts
compound,measurement,setting,value
O=C1NC(=O)C(c2ccccc2)(c2ccccc2)N1 [phenyloin],proliferation of gingival fibroblast cells,[1]; guinea pig gingival fibroblast cells,induced proliferation
Cc1cc(Cn2cnc3c2C[C@@H](C(=O)O)N(C(=O)C(c2ccccc2)c2ccccc2)C3)ccc1N(C)C [PD123319],proliferation of fibroblasts derived from hypertrophic scars,[2],did not influence
same,effect on AT II-stimulated increase in DNA synthesis,[2],augmented
C[C@@H]1CSC(=O)[C@@H]2CCCN2C1=O [captopril lactone],solubility in THF,[3],freely soluble
same,solubility in chloroform,[3],freely soluble
same,solubility in methanol,[3],freely soluble
C[C@H](CS)C(=O)N1CCC[C@H]1C(=O)O [captopril],formation of hypertrophied scars,hypertrophied scars,prevented the formation of hypertrophied scars
same,development of induced proliferation,[1]; [5],inhibited the development of proliferation
same,immunostaining intensities of immunoreactive angiotensin II,[1]; [5],reduced these enhanced immunostaining intensities to control levels
same,solubility in THF,[3],freely soluble
same,solubility in chloroform,[3],freely soluble
same,solubility in methanol,[3],freely soluble
CCC[C@H](N[C@@H](C)C(=O)N1[C@H](C(=O)O)C[C@@H]2CCCC[C@@H]21)C(=O)OCC [perindopril],progression of experimental hepatic fibrosis,[4],ameliorate progression
CCOC(=O)[C@H](CCc1ccccc1)N[C@@H](C)C(=O)N1CCC[C@H]1C(=O)O [enalapril],keloid scar outcome,"keloid scar; first patient (co-author), 10 mg once daily",rapidly improved
same,keloid scar outcome,"keloid scar; person with diabetes, same low dose, after six months of therapy",marked improvement
CCCCC(=O)N(Cc1ccc(-c2ccccc2-c2nnn[nH]2)cc1)[C@H](C(=O)O)C(C)C [valsartan],proliferation of fibroblasts derived from hypertrophic scars,[2],did not influence
same,effect on AT II-stimulated increase in DNA synthesis,[2],inhibited
same,progression of experimental hepatic fibrosis,[4],ameliorate progression
"Ang(1-7): angiotensin peptide Ang(1-7) (DRVYIHP; Angiotensin 1-7; UniProt P01019 25-31, looked up, fragment)",dermal healing following wounding,dermal healing,accelerate dermal healing
